Assay results from the supplement of paper PMC11424490.

Assays:
SW837 [1] = assay: fitted bottom plateau of viability curve, % of DMSO control; higher = less maximal inhibition; extreme values may be limits of the assay
Method in brief: (§1)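 The NCI-H2122, SW837 and NCI-H358 cell lines were plated in 384-well format at 800, 500 and 500 cells/well respectively, in 60 µl. After a 24 h wait, single compounds were applied in dose series by acoustic dispensing, and plates were incubated 72 h, or 144 h in the case of SW837. Readout was CellTiter-Glo luminescence on an EnVision reader following 15 min shaking, normalised to DMSO controls. Both the relative IC50 (a mean over replicates) and the lower plateau derive from a four-parameter nonlinear fit.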

NCI-H358 [2] = assay: as above
Method in brief: as §1

NCI-H2122 [3] = assay: as above
Method in brief: as §1

NCI-H358 [4] = assay: relative IC50 of cell viability (CellTiter-Glo); higher = less potent
Method in brief: as §1

NCI-H2122 [5] = assay: as above
Method in brief: as §1

SW837 [6] = assay: combination cScore with adagrasib (Bliss gap around IC50) (%PoC); higher = stronger additive effect
Method in brief: (§2)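 NCI-H2122, NCI-H358 and SW837 cells were plated in 384-well plates at 500 or 800 cells per well, treated with concentration matrices after 24 h, and grown for 72 h (SW837 for 144 h). Luminescence from CellTiter-Glo was expressed as percent of control relative to vehicle wells and fitted with four-parameter curves. The score is the mean Bliss-independence gap, expected minus measured viability, across a field around both monotherapy IC50 values, or across the top concentrations where no IC50 was reached.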

NCI-H358 [7] = assay: as above
Method in brief: as §2

NCI-H2122 [8] = assay: as above
Method in brief: as §2

| relative IC50 of cell viability (NCI-H358 [4]) | relative IC50 of cell viability (NCI-H2122 [5]) | Structure (SMILES) | fitted bottom plateau of viability curve (SW837 [1]) | fitted bottom plateau of viability curve (NCI-H358 [2]) | fitted bottom plateau of viability curve (NCI-H2122 [3]) | combination cScore with adagrasib (SW837 [6]) | combination cScore with adagrasib (NCI-H358 [7]) | combination cScore with adagrasib (NCI-H2122 [8]) |
| --- | --- | --- | --- | --- | --- | --- | --- | --- |
| 0.028 µM | – | CCN(CCCOc1ccc2c(Nc3cc(CC(=O)Nc4cccc(F)c4)[nH]n3)ncnc2c1)CCOP(=O)(O)O [AZD-1152] (top concentration tested 1000.1 nM) | 62% | 60.1% | 57.4% | – | – | – |
| 0.883 µM | 3.1 µM | COc1cc2ncnc(Nc3ccc(F)c(Cl)c3)c2cc1OCCCN1CCOCC1 [Gefitinib] (top concentration tested 9999.9 nM) | 77.7% | 19.7% | 37.8% | – | – | – |
| 3.59 µM | 3.79 µM | Cc1c(-c2c(-c3ccc(F)o3)sc3ncnc(O[C@H](Cc4ccccc4OCc4ccnn4CC(F)(F)F)C(=O)O)c23)ccc(OCCN2CCN(C)CC2)c1Cl (top concentration tested 10000 nM) | 101% | 0% | 34.5% | – | – | – |
| 0.499 µM | – | C[C@@H]1OCC2(CCN(c3cnc(Sc4ccnc(N)c4Cl)c(N)n3)CC2)[C@@H]1N [TNO155] (top concentration tested 10000 nM) | 94.5% | 29.4% | 69.5% | – | – | – |
| 3.91 µM | – | Cc1c(CN2CCC(Nc3ncnc4sc(CC(F)(F)F)cc34)CC2)ccc2[nH]c(C#N)cc12 [MI-463] (top concentration tested 5000 nM) | 86.6% | 0% | 79.5% | – | – | – |
| 1.99 µM | 2.16 µM | NC1(c2ccc(-c3nc4ccn5c(=O)[nH]nc5c4cc3-c3ccccc3)cc2)CCC1 [MK-2206] (top concentration tested 10000 nM) | 79.9% | 33.4% | 31.8% | – | – | – |
| 0.0272 µM | 0.0259 µM | CC(C)n1nc(-c2ccc3oc(N)nc3c2)c2c(N)ncnc21 [MLN-0128] (top concentration tested 99.893 nM) | 85.3% | 17.7% | 22.6% | – | – | – |
| – | – | CCS(=O)(=O)Nc1ccc2c(c1)/C(=C(/Nc1ccc(CN3CCCCC3)cc1)c1ccccc1)C(=O)N2 [Hesperadin] + C=C(F)C(=O)N1CCN(c2nc(OC[C@@H]3CCCN3C)nc3c2CCN(c2cccc4cccc(Cl)c24)C3)C[C@@H]1CC#N [adagrasib] | – | – | – | 0.27 | 0.47 | 8.14 |
| – | – | NC1(c2ccc(-c3nc4ccn5c(=O)[nH]nc5c4cc3-c3ccccc3)cc2)CCC1 [MK-2206] + C=C(F)C(=O)N1CCN(c2nc(OC[C@@H]3CCCN3C)nc3c2CCN(c2cccc4cccc(Cl)c24)C3)C[C@@H]1CC#N [adagrasib] | – | – | – | 12.2 | 6.39 | 8 |
| – | – | Cc1nc(-c2cn3c(n2)-c2ccc(-c4cnn(C(C)(C)C(N)=O)c4)cc2OCC3)n(C(C)C)n1 [Taselisib] + C=C(F)C(=O)N1CCN(c2nc(OC[C@@H]3CCCN3C)nc3c2CCN(c2cccc4cccc(Cl)c24)C3)C[C@@H]1CC#N [adagrasib] | – | – | – | 26.6 | 7.08 | 18.1 |
| – | – | O=C(/C=C/N1C[C@H]2C[C@@H]1CN2c1ccccn1)c1ccccc1O [PFI-3] + C=C(F)C(=O)N1CCN(c2nc(OC[C@@H]3CCCN3C)nc3c2CCN(c2cccc4cccc(Cl)c24)C3)C[C@@H]1CC#N [adagrasib] | – | – | – | -2.21 | -3.19 | 15.8 |
| – | – | Cc1nc(Nc2n[nH]c3c2CN(C(=O)N[C@H](CN(C)C)c2ccccc2)C3(C)C)c2sccc2n1 + C=C(F)C(=O)N1CCN(c2nc(OC[C@@H]3CCCN3C)nc3c2CCN(c2cccc4cccc(Cl)c24)C3)C[C@@H]1CC#N [adagrasib] | – | – | – | -0.72 | -5.91 | 8.47 |
| – | – | COc1cc2/c(=N/c3ccc(Br)cc3F)nc[nH]c2cc1OCC1CCN(C)CC1 [Vandetanib] + C=C(F)C(=O)N1CCN(c2nc(OC[C@@H]3CCCN3C)nc3c2CCN(c2cccc4cccc(Cl)c24)C3)C[C@@H]1CC#N [adagrasib] | – | – | – | 27.6 | 7.95 | 21.3 |
| – | – | Cc1c(-c2c(-c3ccc(F)o3)sc3ncnc(O[C@H](Cc4ccccc4OCc4ccnn4CC(F)(F)F)C(=O)O)c23)ccc(OCCN2CCN(C)CC2)c1Cl + C=C(F)C(=O)N1CCN(c2nc(OC[C@@H]3CCCN3C)nc3c2CCN(c2cccc4cccc(Cl)c24)C3)C[C@@H]1CC#N [adagrasib] | – | – | – | 4.73 | 5.46 | 8.13 |
| 0.859 µM | – | CC(=O)c1c(C)c2cnc(Nc3ccc(N4CCNCC4)cn3)nc2n(C2CCCC2)c1=O [Palbociclib] (top concentration tested 5000 nM) | 93.5% | 34.2% | 59.8% | – | – | – |
| – | – | Cc1ccc(C(=O)Nc2ccc(CN3CCN(C)CC3)c(C(F)(F)F)c2)cc1C#Cc1cnc2cccnn12 [Ponatinib] + C=C(F)C(=O)N1CCN(c2nc(OC[C@@H]3CCCN3C)nc3c2CCN(c2cccc4cccc(Cl)c24)C3)C[C@@H]1CC#N [adagrasib] | – | – | – | -0.53 | 3.62 | 14.4 |
| – | – | C#Cc1cccc(Nc2ncnc3cc(OCCOC)c(OCCOC)cc23)c1 [Erlotinib] + C=C(F)C(=O)N1CCN(c2nc(OC[C@@H]3CCCN3C)nc3c2CCN(c2cccc4cccc(Cl)c24)C3)C[C@@H]1CC#N [adagrasib] | – | – | – | 19.4 | 10 | 14.9 |
| – | – | CCCc1cc(C)[nH]c(=O)c1CNC(=O)c1cc(-c2ccnc(N3CCN(C)CC3)c2)cc2c1cnn2C(C)C [GSK343] + C=C(F)C(=O)N1CCN(c2nc(OC[C@@H]3CCCN3C)nc3c2CCN(c2cccc4cccc(Cl)c24)C3)C[C@@H]1CC#N [adagrasib] | – | – | – | -0.82 | 4.64 | 15.8 |
| 0.262 µM | – | C=CC(=O)N1CCC[C@@H](n2nc(-c3ccc(Oc4ccccc4)cc3)c3c(N)ncnc32)C1 [Ibrutinib] (top concentration tested 10000 nM) | 76.6% | 12.4% | 76.7% | – | – | – |
| – | – | Cc1nc(Nc2ncc(C(=O)Nc3c(C)cccc3Cl)s2)cc(N2CCN(CCO)CC2)n1 [Dasatinib] + C=C(F)C(=O)N1CCN(c2nc(OC[C@@H]3CCCN3C)nc3c2CCN(c2cccc4cccc(Cl)c24)C3)C[C@@H]1CC#N [adagrasib] | – | – | – | 14.7 | 8.94 | 42 |
| – | – | COc1cc(CCc2cc(NC(=O)c3ccc(N4CC(C)NC(C)C4)cc3)n[nH]2)cc(OC)c1 (stereo not given) [AZD4547] + C=C(F)C(=O)N1CCN(c2nc(OC[C@@H]3CCCN3C)nc3c2CCN(c2cccc4cccc(Cl)c24)C3)C[C@@H]1CC#N [adagrasib] | – | – | – | 5.13 | -1.38 | 11.3 |
| – | – | CC(C)n1nc(-c2ccc3oc(N)nc3c2)c2c(N)ncnc21 [MLN-0128] + C=C(F)C(=O)N1CCN(c2nc(OC[C@@H]3CCCN3C)nc3c2CCN(c2cccc4cccc(Cl)c24)C3)C[C@@H]1CC#N [adagrasib] | – | – | – | 9.3 | 0.5 | 7.57 |
| – | – | COc1cc2nc(C)nc(N[C@H](C)c3cc(N)cc(C(F)(F)F)c3)c2cc1O[C@H]1CCOC1 [BI-3406 (SOSi)] + C=C(F)C(=O)N1CCN(c2nc(OC[C@@H]3CCCN3C)nc3c2CCN(c2cccc4cccc(Cl)c24)C3)C[C@@H]1CC#N [adagrasib] | – | – | – | 19.4 | 10.7 | 28 |
| – | – | O=P1(N(CCCl)CCCl)NCCCO1 (stereo not given) [Cyclophosphamide] + C=C(F)C(=O)N1CCN(c2nc(OC[C@@H]3CCCN3C)nc3c2CCN(c2cccc4cccc(Cl)c24)C3)C[C@@H]1CC#N [adagrasib] | – | – | – | -0.5 | -0.63 | -0.77 |
